{"source": "patent US9540377B2", "about": "“2,6,7,8 substituted purines as HDM2 inhibitors” (Merck Sharp & Dohme Corp., priority 2013, dated 2017)", "data": [{"target": "HDM2 (truncated, residues 17 to 125, containing p53 binding surface) (Homo sapiens (Human), UniProt Q00987)", "sequence (Q00987 17-125)": "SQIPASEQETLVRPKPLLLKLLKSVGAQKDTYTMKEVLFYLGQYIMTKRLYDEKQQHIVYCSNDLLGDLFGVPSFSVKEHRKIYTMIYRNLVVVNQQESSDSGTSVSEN", "experiment": "HDM2 FRET assay (inhibition of binding of FITC labeled p53-site peptide to HDM2)", "details": "Table 16", "description": "(§1) IC50 DETERMINATIONS: Dose-response curves were plotted from the inhibition data, from 10 point serial dilutions of inhibitory compounds. Concentration of compound was plotted against em520/Cem495 ratio signal. To generate IC50 values, the dose-response curves were fitted to a standard sigmoidal curve and IC50 values were derived by nonlinear regression analysis.", "units": {"IC50": "nM"}, "values": [{"compound": "C[C@H]1CC[C@H](Cn2c(N3CCOC4CCCCC43)nc3nc(-c4noc(=O)[nH]4)nc(-c4cncc(Cl)c4)c32)CC1", "note": "(single isomer, unassigned) [Example 16.51, 3-[6-(5-chloropyridin-3-yl)-7-[(trans-4-methylcyclohexyl)methyl]-8-(octahydro-4H-1,4-benzoxazin-4-yl)-7H-purin-2-yl]-1,2,4-oxadiazol-5(4H)-one]", "IC50": 30.2}, {"compound": "C[C@H]1CC[C@H](Cn2c(N3CCCC4COCCC43)nc3nc(-c4n[nH]c(=O)o4)nc(-c4cccc(Cl)c4)c32)CC1", "note": "(single isomer, unassigned) [Example 16.125, 5-{6-(3-chlorophenyl)-8-(hexahydro-2H-pyrano[4,3-b]pyridin-1(5H)-yl)-7-[(trans-4-methylcyclohexyl)methyl]-7H-purin-2-yl}-1,3,4-oxadiazol-2(3H)-one]", "IC50": 56.7}, {"compound": "C[C@H]1CC[C@H](Cn2c(N3CCCC4COCCC43)nc3nc(-c4noc(=O)[nH]4)nc(-c4cccc(Cl)c4)c32)CC1", "note": "(single isomer, unassigned) [Example 16.119, 3-{6-[3-chlorophenyl)-8-(hexahydro-2H-pyrano[4,3-b]pyridin-1(5H)-yl)-7-[(trans-4-methylcyclohexyl)methyl]-7H-purin-2-yl}-1,2,4-oxadiazol-5(4H)-one]", "IC50": 60.9}, {"compound": "CO[C@@H]1CCN(c2nc3nc(-c4n[nH]c(=O)o4)nc(-c4cncc(Cl)c4)c3n2C[C@H]2CC[C@H](C)CC2)[C@@H](C)C1", "note": "(racemic) [Example 16.155, 5-{6-(5-chloropyridin-3-yl)-8-[(trans)-4-methoxy-2-methylpiperidin-1-yl]-7-[(trans-4-methylcyclohexyl)methyl]-7H-purin-2-yl}-1,3,4-oxadiazol-2(3H)-one]", "IC50": 49.1}, {"compound": "C[C@H]1CC[C@H](Cn2c(N3CCOC4CCCCC43)nc3nc(-c4noc(=O)[nH]4)nc(-c4cncc(Cl)c4)c32)CC1", "note": "(single isomer, unassigned) [Example 16.52, 3-[6-(5-chloropyridin-3-yl)-7-[(trans-4-methylcyclohexyl)methyl]-8-(octahydro-4H-1,4-benzoxazin-4-yl)-7H-purin-2-yl]-1,2,4-oxadiazol-5(4H)-one]", "IC50": 1}, {"compound": "COC(C)(C)C1CCCN1c1nc2nc(-c3noc(=O)[nH]3)nc(-c3cncc(Cl)c3)c2n1C[C@H]1CC[C@H](C)CC1", "note": "(single isomer, unassigned) [Example 16.73, 3-{6-(5-chloropyridin-3-yl)-8-[2-(1-methoxy-1-methylethyl)pyrrolidin-1-yl]-7-[(trans-4-methylcyclohexyl)methyl]-7H-purin-2-yl}-1,2,4-oxadiazol-5(4H)-one]", "IC50": 1.97}]}, {"target": "HDM2 (truncated, residues 17 to 125, containing p53 binding surface) (Homo sapiens (Human), UniProt Q00987)", "experiment": "HDM2 FRET assay (inhibition of binding of FITC labeled p53-site peptide to HDM2)", "details": "Table 18", "description": "as §1", "units": {"IC50": "nM"}, "values": [{"compound": "CC([C@H]1CC[C@H](C)CC1)n1c(N2CCOC3CCCC32)nc2nc(-c3n[nH]c(=O)o3)nc(-c3cccc(Cl)c3)c21", "note": "(single isomer, unassigned) [Example 18.43, 5-{6-(3-chlorophenyl)-8-(hexahydrocyclopenta[b][1,4]oxazin-4(4aH)-yl)-7-[1-(trans-4-methylcyclohexyl)ethyl]-7H-purin-2-yl}-1,3,4-oxadiazol-2(3H)-one]", "IC50": 14}]}, {"target": "HDM2 (truncated, residues 17 to 125, containing p53 binding surface) (Homo sapiens (Human), UniProt Q00987)", "experiment": "HDM2 FRET assay (inhibition of binding of FITC labeled p53-site peptide to HDM2)", "details": "Table 23", "description": "as §1", "units": {"IC50": "nM"}, "values": [{"compound": "CC(O)(c1nc2nc(-c3noc(=O)[nH]3)nc(-c3cccc(Cl)c3)c2n1C[C@H]1CC[C@H](C)CC1)C1CCCCC1", "note": "(mixture of isomers) [Example 23.10, 3-{6-(3-chlorophenyl)-8-(1-cyclohexyl-1-hydroxyethyl)-7-[(trans-4-methylcyclohexyl)methyl]-7H-purin-2-yl}-1,2,4-oxadiazol-5(4H)-one]", "IC50": 15.6}, {"compound": "COC(C)(c1cccc(Cl)c1F)c1nc2nc(-c3n[nH]c(=O)o3)nc(-c3cncc(Cl)c3)c2n1C[C@H]1CC[C@H](C)CC1", "note": "(single isomer, unassigned) [Example 23.74, 5-{8-[1-(3-chloro-2-fluorophenyl)-1-methoxyethyl]-6-(5-chloropyridin-3-yl)-7-[(trans-4-methylcyclohexyl)methyl]-7H-purin-2-yl}-1,3,4-oxadiazol-2(3H)-one]", "IC50": 17.8}, {"compound": "CC(F)(c1ncccc1F)c1nc2nc(-c3noc(=O)[nH]3)nc(-c3cncc(Cl)c3)c2n1C[C@H]1CC[C@H](C)CC1", "note": "(single isomer, unassigned) [Example 23.99, 3-{6-(5-chloropyridin-3-yl)-8-[1-fluoro-1-(3-fluoropyridin-2-yl)ethyl]-7-[(trans-4-methylcyclohexyl)methyl]-7H-purin-2-yl}-1,2,4-oxadiazol-5(4H)-one]", "IC50": 0.315}, {"compound": "COC(c1nc2nc(-c3noc(=O)[nH]3)nc(-c3cncc(Cl)c3)c2n1C[C@H]1CC[C@H](C)CC1)C1CCOCC1", "note": "(mixture of isomers) [Example 23.18, 3-{6-(5-chloropyridin-3-yl)-8-[methoxy(tetrahydro-2H-pyran-4-yl)methyl]-7-[(trans-4-methylcyclohexyl)methyl]-7H-purin-2-yl}-1,2,4-oxadiazol-5(4H)-one]", "IC50": 24.1}, {"compound": "COC(C)(c1ccccn1)c1nc2nc(-c3n[nH]c(=O)o3)nc(-c3cccc(Cl)c3)c2n1C[C@H]1CC[C@H](C)CC1", "note": "(single isomer, unassigned) [Example 23.54, 5-{6-(3-chlorophenyl)-8-(1-methoxy-1-pyridin-2-ylethyl)-7-[(trans-4-methylcyclohexyl)methyl]-7H-purin-2-yl}-1,3,4-oxadiazol-2(3H)-one]", "IC50": 13.6}, {"compound": "COC(c1nc2nc(-c3noc(=O)[nH]3)nc(-c3cncc(Cl)c3)c2n1C[C@H]1CC[C@H](C)CC1)C1CCCC1", "note": "(mixture of isomers) [Example 23.61, 3-{6-(5-chloropyridin-3-yl)-8-[cyclopentyl(methoxy)methyl]-7-[(trans-4-methylcyclohexyl)methyl]-7H-purin-2-yl}-1,2,4-oxadiazol-5(4H)-one]", "IC50": 4.64}, {"compound": "COC(C)(c1nc2nc(-c3n[nH]c(=O)o3)nc(-c3cncc(Cl)c3)c2n1C[C@H]1CC[C@H](C)CC1)C1CCCC1", "note": "(mixture of isomers) [Example 23.72, 5-{6-(5-chloropyridin-3-yl)-8-(1-cyclopentyl-1-methoxyethyl)-7-[(trans-4-methylcyclohexyl)methyl]-7H-purin-2-yl}-1,3,4-oxadiazol-2(3H)-one]", "IC50": 2.6}, {"compound": "CC(F)(c1ccccn1)c1nc2nc(-c3noc(=O)[nH]3)nc(-c3cccc(Cl)c3)c2n1C[C@H]1CC[C@H](C)CC1", "note": "(single isomer, unassigned) [Example 23.31, 3-{6-(3-chlorophenyl)-8-(1-fluoro-1-pyridin-2-ylethyl)-7-[(trans-4-methylcyclohexyl)methyl]-7H-purin-2-yl}-1,2,4-oxadiazol-5(4H)-one]", "IC50": 3.73}, {"compound": "COC(c1nc2nc(-c3n[nH]c(=O)o3)nc(-c3cccc(Cl)c3)c2n1C[C@H]1CC[C@H](C)CC1)C1CCOCC1", "note": "(mixture of isomers) [Example 23.16, 5-{6-(3-chlorophenyl)-8-[methoxy(tetrahydro-2H-pyran-4-yl)methyl]-7-[(trans-4-methylcyclohexyl)methyl]-7H-purin-2-yl}-1,3,4-oxadiazol-2(3H)-one]", "IC50": 12.3}, {"compound": "COC(C)(c1nc2nc(-c3noc(=O)[nH]3)nc(-c3cncc(Cl)c3)c2n1C[C@H]1CC[C@H](C)CC1)C1CCCC1", "note": "(mixture of isomers) [Example 23.71, 3-{6-(5-chloropyridin-3-yl)-8-(1-cyclopentyl-1-methoxyethyl)-7-[(trans-4-methylcyclohexyl)methyl]-7H-purin-2-yl}-1,2,4-oxadiazol-5(4H)-one]", "IC50": 1.29}, {"compound": "COC(c1nc2nc(-c3n[nH]c(=O)o3)nc(-c3cncc(Cl)c3)c2n1C[C@H]1CC[C@H](C)CC1)C1CCOCC1", "note": "(mixture of isomers) [Example 23.20, 5-{6-(5-chloropyridin-3-yl)-8-[methoxy(tetrahydro-2H-pyran-4-yl)methyl]-7-[(trans-4-methylcyclohexyl)methyl]-7H-purin-2-yl}-1,3,4-oxadiazol-2(3H)-one]", "IC50": 27.6}, {"compound": "COC(C)(c1ccccn1)c1nc2nc(-c3n[nH]c(=O)o3)nc(-c3cccc(Cl)c3)c2n1C[C@H]1CC[C@H](C)CC1", "note": "(single isomer, unassigned) [Example 23.55, 5-{6-(3-chlorophenyl)-8-(1-methoxy-1-pyridin-2-ylethyl)-7-[(trans-4-methylcyclohexyl)methyl]-7H-purin-2-yl}-1,3,4-oxadiazol-2(3H)-one]", "IC50": 4.26}, {"compound": "CC(F)(c1c(F)cccc1F)c1nc2nc(-c3noc(=O)[nH]3)nc(-c3cncc(Cl)c3)c2n1C[C@H]1CC[C@H](C)CC1", "note": "(single isomer, unassigned) [Example 23.69, 3-{6-(5-chloropyridin-3-yl)-8-[1-(2,6-difluorophenyl)-1-fluoroethyl]-7-[(trans-4-methylcyclohexyl)methyl]-7H-purin-2-yl}-1,2,4-oxadiazol-5(4H)-one]", "IC50": 0.156}, {"compound": "CC(F)(c1c(F)cccc1F)c1nc2nc(-c3n[nH]c(=O)o3)nc(-c3cncc(Cl)c3)c2n1C[C@H]1CC[C@H](C)CC1", "note": "(single isomer, unassigned) [Example 23.81, 5-{6-(5-chloropyridin-3-yl)-8-[1-(2,6-difluorophenyl)-1-fluoroethyl]-7-[(trans-4-methylcyclohexyl)methyl]-7H-purin-2-yl}-1,3,4-oxadiazol-2(3H)-one]", "IC50": 0.289}, {"compound": "CC(F)(c1ccccc1F)c1nc2nc(-c3n[nH]c(=O)o3)nc(-c3cncc(Cl)c3)c2n1C[C@H]1CC[C@H](C)CC1", "note": "(single isomer, unassigned) [Example 23.33, 5-{6-(5-chloropyridin-3-yl)-8-[1-fluoro-1-(2-fluorophenyl)ethyl]-7-[{trans-4-methylcyclohexyl)methyl]-7H-purin-2-yl}-1,3,4-oxadiazol-2(3H)-one]", "IC50": 0.453}, {"compound": "CC(F)(c1ccccc1C#N)c1nc2nc(-c3noc(=O)[nH]3)nc(-c3cncc(Cl)c3)c2n1C[C@H]1CC[C@H](C)CC1", "note": "(mixture of isomers) [Example 23.110, 2-{1-[6-(5-chloropyridin-3-yl)-7-[(trans-4-methylcyclohexyl)methyl]-2-(5-oxo-4,5-dihydro-1,2,4-oxadiazol-3-yl)-7H-purin-8-yl]-1-fluoroethyl}benzonitrile]", "IC50": 0.515}]}]}
